Series [1] concerns acetate levels in the brain. The following applies: dietary supplement, within one hour of administration; cited from earlier work.
Series [2] is described as follows: solubility/precipitation of BCAA drink during study preparation. The class given is physicochemical. To be noted: 60 g/day dose divided twice daily, initial study preparation.
Description: The three BCAAs, valine, isoleucine, and leucine, were combined together in a 1:1:1 ratio for the four treatment doses. […] Given the unknown optimal dose of BCAA supplementation for concussion, doses of 15 g, 30 g, 45 g, and 60 g divided twice daily were chosen as initial treatment doses.

`CC(=O)OCC(COC(C)=O)OC(C)=O` [GTA, glyceryl triacetate]: the “increase of acetate levels in the brain” value in series [1] is on record as “over 15 fold”. Take `CC(C)C[C@H](N)C(=O)O` [leucine]: the “precipitation at the highest dose” value in series [2] is listed as “precipitating at a lower concentration than expected”.

The record behind these values is patent US20260263403A1, “COMPOSITIONS AND METHODS FOR TREATING TRAUMATIC BRAIN INJURY” (THE CHILDREN'S HOSPITAL OF PHILADELPHIA, priority 2023, published 2026).
